The MIC is the lowest concentration that inhibits growth of the organism.

Results on 1 compound are retold here after ChEMBL document CHEMBL5370591, “A Potent and Narrow-Spectrum Antibacterial against Clostridioides difficile Infection” (J Med Chem, 2023).

Assay [1] relates to Clostridioides difficile. Description: Antibacterial activity against Clostridium difficile BAA-1803 assessed as inhibition of bacterial growth by broth microdilution method. The class given is functional. A general note: Dilution methods test growth across graded concentrations, often in twofold steps.
For assay [2], the system named is Clostridioides difficile. Description: Antibacterial activity against Clostridium difficile NR49294 assessed as inhibition of bacterial growth by broth microdilution method. The class given is functional.
Assay [3] has as its system Clostridioides difficile. Briefly: Antibacterial activity against Clostridium difficile NR49318 assessed as inhibition of bacterial growth by broth microdilution method. Type of assay: functional.
The test system of assay [4] is Clostridioides difficile. Description: Antibacterial activity against Clostridium difficile NR49292 assessed as inhibition of bacterial growth by broth microdilution method. Type of assay: functional.
The subject of assay [5] is Staphylococcus aureus. Briefly: Antibacterial activity against vancomycin-resistant Staphylococcus aureus clinical isolate 1 assessed as inhibition of bacterial growth by broth microdilution method. Type of assay: functional.
Assay [6] concerns Bacteroides fragilis. Briefly: Antibacterial activity against Bacteroides fragilis HM-709 assessed as inhibition of bacterial growth by broth microdilution method. Type of assay: functional.
The subject of assay [7] is Bifidobacterium longum. Description: Antibacterial activity against Bifidobacterium longum HM-846 assessed as inhibition of bacterial growth by broth microdilution method. The class given is functional.
The subject of assay [8] is Fusobacterium nucleatum. Briefly: Antibacterial activity against Fusobacterium nucleatum HM-992 assessed as inhibition of bacterial growth by broth microdilution method. The class given is functional.
Assay [9] has as its system Clostridioides difficile. Briefly: Antibacterial activity against Clostridium difficile ATCC 43255 assessed as as time duration of post-antibiotic effect for suppression of bacterial growth at 4 times MIC incubated for 1 hr in broth solution. The class given is functional.
Assay [10] concerns Clostridioides difficile. Briefly: Antibacterial activity against Clostridium difficile ATCC 43255 assessed as damage in cell wall at 8 time MIC incubated for 24 hrs by scanning electron microscopy based analysis. The class given is functional, organism-based.

SMILES strings stand for the structures. ≈ marks a conversion by molar mass, not a printed value. Calls of active or inactive are those of the source. The rule behind the calls is not given here.

In the case of `CN[C@H](CC(C)C)C(=O)N[C@H]1C(=O)N[C@@H](CC(N)=O)C(=O)N[C@H]2C(=O)N[C@H]3C(=O)N[C@H](C(=O)N[C@H](C(=O)O)c4cc(O)cc(O)c4-c4cc3ccc4O)[C@H](O)c3ccc(c(Cl)c3)Oc3cc2cc(c3O[C@@H]2O[C@H](CO)[C@@H](O)[C@H](O)[C@H]2O[C@H]2C[C@](C)(N)[C@H](O)[C@H](C)O2)Oc2ccc(cc2Cl)[C@H]1O` [VANCOMYCIN], the minimum inhibitory concentration (MIC) in assay [1] was found to be 2 µg/mL (≈ 1.38 µM); in assay [2], 0.25 µg/mL (≈ 0.173 µM); in assay [3], 0.25 µg/mL (≈ 0.173 µM); in [4] it was 0.25 µg/mL (≈ 0.173 µM); in [5] it was 64 µg/mL (≈ 44.2 µM); in assay [6] it was 16 µg/mL (≈ 11 µM). In addition, the MIC in [7] and in assay [8] was 0.25 µg/mL (≈ 0.173 µM) throughout. Besides, the Time in assay [9] was found to be 3 h. In assay [10], the result was Active.
